In PubChem BioAssay (NCI):
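Test compounds were applied to cells in 96-well plates for 48 hours at 5 doses. TGI denotes the concentration required for complete inhibition of growth.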

Columns and labels:
Assay in all cases: DTP human tumour cell line panel, 48 h
M14 melanoma = test system: M14 melanoma
SF-268 CNS = test system: SF-268 CNS
UACC-257 melanoma = test system: UACC-257 melanoma
SN12C renal = test system: SN12C renal
SK-MEL-28 melanoma = test system: SK-MEL-28 melanoma
OVCAR-4 ovarian = test system: OVCAR-4 ovarian
RPMI-8226 leukemia = test system: RPMI-8226 leukemia
UO-31 renal = test system: UO-31 renal
HCT-15 colon = test system: HCT-15 colon
EKVX NSCLC = test system: EKVX NSCLC
SNB-19 CNS = test system: SNB-19 CNS
CAKI-1 renal = test system: CAKI-1 renal
T-47D breast = test system: T-47D breast
OVCAR-8 ovarian = test system: OVCAR-8 ovarian
HT29 colon = test system: HT29 colon
SK-OV-3 ovarian = test system: SK-OV-3 ovarian
COLO 205 colon = test system: COLO 205 colon
DU-145 prostate = test system: DU-145 prostate
IGROV1 ovarian = test system: IGROV1 ovarian
PC-3 prostate = test system: PC-3 prostate
NCI-H522 lung = test system: NCI-H522 lung
SK-MEL-5 melanoma = test system: SK-MEL-5 melanoma
MCF7 breast = test system: MCF7 breast
SW-620 colon = test system: SW-620 colon
HOP-62 NSCLC = test system: HOP-62 NSCLC
HOP-92 NSCLC = test system: HOP-92 NSCLC
MDA-MB-435 = test system: MDA-MB-435
MDA-MB-231 breast = test system: MDA-MB-231 breast
SNB-75 CNS = test system: SNB-75 CNS
HS 578T breast = test system: HS 578T breast
786-0 renal = test system: 786-0 renal
NCI-H23 lung = test system: NCI-H23 lung
ACHN renal = test system: ACHN renal
MDA-N = test system: MDA-N
KM12 colon = test system: KM12 colon
LOX IMVI melanoma = test system: LOX IMVI melanoma
HCC-2998 colon = test system: HCC-2998 colon
NCI/ADR-RES ovarian = test system: NCI/ADR-RES ovarian
MOLT-4 leukemia = test system: MOLT-4 leukemia
U251 CNS = test system: U251 CNS
SK-MEL-2 melanoma = test system: SK-MEL-2 melanoma
HCT-116 colon = test system: HCT-116 colon
TK-10 renal = test system: TK-10 renal
OVCAR-5 ovarian = test system: OVCAR-5 ovarian
UACC-62 melanoma = test system: UACC-62 melanoma
NCI-H226 lung = test system: NCI-H226 lung
A549 NSCLC = test system: A549 NSCLC
SF-295 CNS = test system: SF-295 CNS
SR leukemia = test system: SR leukemia
OVCAR-3 ovarian = test system: OVCAR-3 ovarian
HL-60(TB) leukemia = test system: HL-60(TB) leukemia
SF-539 CNS = test system: SF-539 CNS
CCRF-CEM leukemia = test system: CCRF-CEM leukemia
MALME-3M melanoma = test system: MALME-3M melanoma
K-562 leukemia = test system: K-562 leukemia
RXF 393 renal = test system: RXF 393 renal
NCI-H460 lung = test system: NCI-H460 lung

`Cc1cc2c3ccccc3nc2c2cc[nH]c(C)c12` was tested, and the TGI (M14 melanoma) was 3.42 µM, the TGI (SF-268 CNS) was 31.2 µM and the TGI (UACC-257 melanoma) was 46.9 µM. For the same compound, the TGI (SN12C renal) was 18.5 µM, the TGI (SK-MEL-28 melanoma) was 3.3 µM and the TGI (OVCAR-4 ovarian) was over 100 µM. It also gave a TGI (RPMI-8226 leukemia) of 20 µM, a TGI (UO-31 renal) of 45.1 µM and a TGI (HCT-15 colon) of 7.59 µM. It also gave a TGI (EKVX NSCLC) of over 70.7 µM, a TGI (SNB-19 CNS) of 48.9 µM and a TGI (CAKI-1 renal) of 51 µM. For the same compound, the TGI (T-47D breast) was 38.9 µM, the TGI (OVCAR-8 ovarian) was 31.6 µM and the TGI (HT29 colon) was over 80.6 µM. It also gave a TGI (SK-OV-3 ovarian) of 49.6 µM, a TGI (COLO 205 colon) of 4.31 µM and a TGI (DU-145 prostate) of 29.8 µM. The TGI (IGROV1 ovarian) was over 55.9 µM, the TGI (PC-3 prostate) was over 85.5 µM and the TGI (NCI-H522 lung) was 4.49 µM. It also gave a TGI (SK-MEL-5 melanoma) of 20.2 µM, a TGI (MCF7 breast) of over 100 µM and a TGI (SW-620 colon) of 6.87 µM. It also gave a TGI (HOP-62 NSCLC) of over 64.7 µM, a TGI (HOP-92 NSCLC) of 49.9 µM and a TGI (MDA-MB-435) of 3.45 µM. It also gave a TGI (MDA-MB-231 breast) of 17.1 µM, a TGI (SNB-75 CNS) of 36.5 µM and a TGI (HS 578T breast) of over 65.5 µM. The TGI (786-0 renal) was 3.06 µM, the TGI (NCI-H23 lung) was over 31.6 µM and the TGI (ACHN renal) was 52.4 µM. The TGI (MDA-N) was 3.3 µM, the TGI (KM12 colon) was over 31.6 µM and the TGI (LOX IMVI melanoma) was 4.89 µM. The TGI (HCC-2998 colon) was 6.67 µM, the TGI (NCI/ADR-RES ovarian) was over 100 µM and the TGI (MOLT-4 leukemia) was 22.1 µM. The TGI (U251 CNS) was 5.62 µM, the TGI (SK-MEL-2 melanoma) was 23.3 µM and the TGI (HCT-116 colon) was 3.57 µM. The TGI (TK-10 renal) was 37.6 µM, the TGI (OVCAR-5 ovarian) was 36.5 µM and the TGI (UACC-62 melanoma) was 27.9 µM. For the same compound, the TGI (NCI-H226 lung) was 28.2 µM, the TGI (A549 NSCLC) was 50.8 µM and the TGI (SF-295 CNS) was over 88.5 µM. The TGI (SR leukemia) was over 74.8 µM, the TGI (OVCAR-3 ovarian) was over 35.4 µM and the TGI (HL-60(TB) leukemia) was 4.23 µM. The TGI (SF-539 CNS) was 11.4 µM, the TGI (CCRF-CEM leukemia) was 4.77 µM and the TGI (MALME-3M melanoma) was 28.8 µM. The TGI (K-562 leukemia) was 3.59 µM.

`CC1(C)NC(C)(C)/C(=N\O)C(=NO)/C1=N/O` was tested, and the TGI (M14 melanoma) was over 100 µM, the TGI (SF-268 CNS) was over 100 µM and the TGI (UACC-257 melanoma) was over 100 µM. It also gave a TGI (SN12C renal) of over 100 µM, a TGI (SK-MEL-28 melanoma) of over 100 µM and a TGI (OVCAR-4 ovarian) of over 100 µM. It also gave a TGI (RPMI-8226 leukemia) of over 100 µM, a TGI (UO-31 renal) of over 100 µM and a TGI (HCT-15 colon) of over 100 µM. For the same compound, the TGI (EKVX NSCLC) was over 100 µM, the TGI (SNB-19 CNS) was over 100 µM and the TGI (CAKI-1 renal) was over 100 µM. It also gave a TGI (T-47D breast) of over 100 µM, a TGI (OVCAR-8 ovarian) of over 100 µM and a TGI (HT29 colon) of over 100 µM. The TGI (SK-OV-3 ovarian) was over 100 µM, the TGI (COLO 205 colon) was over 100 µM and the TGI (DU-145 prostate) was over 100 µM. The TGI (IGROV1 ovarian) was over 100 µM, the TGI (PC-3 prostate) was over 100 µM and the TGI (SK-MEL-5 melanoma) was over 100 µM. For the same compound, the TGI (MCF7 breast) was over 100 µM, the TGI (SW-620 colon) was over 100 µM and the TGI (HOP-62 NSCLC) was over 100 µM. It also gave a TGI (HOP-92 NSCLC) of over 100 µM, a TGI (MDA-MB-435) of over 100 µM and a TGI (MDA-MB-231 breast) of over 100 µM. The TGI (SNB-75 CNS) was over 100 µM, the TGI (HS 578T breast) was over 100 µM and the TGI (786-0 renal) was over 100 µM. The TGI (NCI-H23 lung) was over 100 µM, the TGI (ACHN renal) was over 100 µM and the TGI (MDA-N) was over 100 µM. For the same compound, the TGI (KM12 colon) was over 100 µM, the TGI (RXF 393 renal) was over 100 µM and the TGI (NCI-H460 lung) was over 100 µM. For the same compound, the TGI (LOX IMVI melanoma) was over 100 µM, the TGI (HCC-2998 colon) was over 100 µM and the TGI (NCI/ADR-RES ovarian) was over 100 µM. For the same compound, the TGI (MOLT-4 leukemia) was over 100 µM, the TGI (U251 CNS) was over 100 µM and the TGI (SK-MEL-2 melanoma) was over 100 µM. For the same compound, the TGI (HCT-116 colon) was over 100 µM, the TGI (TK-10 renal) was over 100 µM and the TGI (OVCAR-5 ovarian) was over 100 µM. The TGI (UACC-62 melanoma) was over 100 µM, the TGI (NCI-H226 lung) was over 100 µM and the TGI (A549 NSCLC) was over 100 µM. The TGI (SF-295 CNS) was over 100 µM, the TGI (SR leukemia) was over 100 µM and the TGI (OVCAR-3 ovarian) was over 100 µM. The TGI (HL-60(TB) leukemia) was over 100 µM, the TGI (SF-539 CNS) was over 100 µM and the TGI (CCRF-CEM leukemia) was over 100 µM. It also gave a TGI (MALME-3M melanoma) of over 100 µM and a TGI (K-562 leukemia) of over 100 µM.
